Assay results reported in patent US8350032B2, “Integrated photoactive agents for real-time monitoring of hemostasis” (MediBeacon Development, LLC, priority 2007, dated 2013).

Tested on: production of thrombin via activation of the extrinsic cascade (tissue factor pathway)
Assay: whole blood activity screen: inhibition of thrombin production when clotting is activated via the tissue factor pathway (extrinsic cascade)
Assay type: biochemical
Conditions: nine concentrations, in triplicate, FIG. 4
Procedure: The compound (MP3117) of Example 1 was tested for its ability to inhibit the production of thrombin via activation of the extrinsic cascade. In particular, an assay that included a whole blood activity screen was performed. In this regard, nine aqueous solutions containing varying concentrations of the compound of Example 1 were tested for their ability to inhibit thrombin production when clotting was activated via the tissue factor pathway (in triplicate). The data from the assay was also utilized to extract the IC50 for the compound. Incidentally, “IC50” refers to the amount of a compound necessary to inhibit 50% of the active enzyme to which it binds.

IC50: 12.4 ± 0.79 nM
Compound: N=C(N)c1ccc(CNC(=O)c2nc(N)c(C(=O)NCc3ccc(C(=N)N)cc3)nc2N)cc1 [Example 1, 3,6-diamino-N2,N5-bis(4-carbamimidoylbenzyl)pyrazine-2,5-dicarboxamide]
